Data set [1] deals with CREB. As to the kind of experiment: Western blot for CREB phosphorylation level in neurons. Format: cell-based. As to conditions: for CREB phosphorylation: 10 µM, FIG. 2, against positive control amx; for phosphorylation of CREB: FIG. 8, compared with pterosin B. The procedure: (§1) Western blot analysis was performed by using the following method. Cells were lysed in RIPA buffer (20 mM Tris-Cl pH 7.4, 1 mM EDTA, 150 mM NaCl, 1% Triton X-100, 1 mM EGTA, 1 µM Na3VO4, 2.5 mM sodium pyrophosphate, 1 µM phenylmethylsulfonyl fluoride, 1 ug/ml leupeptin). The protein concentration was calculated by using BCA Protein Assay Reagent (BioRad, Hercules, CA, USA). Protein samples were separated by SDS-PAGE and transferred to polyvinylidene difluoride (PVDF) membranes (Millipore, Bedford, MA, USA). Membranes were incubated overnight at 4 °C with primary antibodies followed by HRP-conjugated goat anti-rabbit IgG (1:5,000; Pierce; Carlsbad, CA, USA). The used primary antibodies were actin (sigma; 1:1000), p-CREB (Cell signaling; 1:1000), tubulin (Cell signaling; 1:1000), p-PKA (Cell signaling; 1:1000), p -trk (Cell signaling; 1:1000) and BDNF (Abcam; 1:1000). All membranes were visualized by using a UVP Autochemi Darkroom Imaging System (Utra-Violet Products Ltd. UK) and Immobilon Crescendo Western HRP Substrate or Luminata Forte Western HRP Substrate (Millipore, USA).

For data set [2], the system named is CREB. As to the kind of experiment: Western blot for CREB phosphorylation level in astrocytes. Format: cell-based. As to conditions: FIG. 2. The procedure:
as §1

Data set [3] concerns NIH3T3 cells. As to the kind of experiment: MTT assay, cytotoxicity in normal cells. The format is cell-based. As to conditions: for cytotoxicity: normal cells (NIH3T3), result in words. The procedure:
(§2) NIH3T3 cells, as a mouse fibroblast cell line, and B16F10 cells, as a mouse melanoma cell line, were dispensed into a 96 well plate at 2×10^3 cells/well, and cultured in DMEM supplemented with 10% fetal bovine serum (FBS) at 5% CO2 and 37°C. Compounds (pterosin A, pterosin B, pterosin C, pterosin D, pterosin P, pterosin Z, pteroside A, pteroside B and pteroside Z) were treated at different concentrations and then cultured for 48 hours. Thereafter, MTT solution (5 mg/ml) was added to each well at a concentration of […] and incubated at 37°C for 4 hours. […] After incubation for 10 minutes, optical density was measured at 550 nm by using a Microplate Reader (Molecular Devices, Spectra Max, USA). An optical density is an index representing the number of surviving cells and is calculated by the formula below, and reproducibility was confirmed through three experiments. Cell proliferation rate (%) = OD550 (sample)/OD550; (control) × 100 [formula]
(§3) As described in the experimental method, mouse embryo fibroblast cell-line (NIH3T3) as a normal cell and Mouse melanoma cell-line (B16F10) as a cancer cell were cultured in a 96-well plate, and each compound was added to the cell medium at each concentration and cultured for 48 hours, MTT was then administered, and the optical density was measured at 550 nm by using a microplate reader. The optical density is an index representing the number of surviving cells and calculated by the following formula, and reproducibility was confirmed through three experiments. Cell proliferation rate (%) = OD550 (sample)/OD550; (control) × 100 [formula]
(§4) Then, the LD50 (Lethal Dose 50) value was calculated based on the change in cell proliferation rate.

The test system of data set [4] is B16F10 cells. As to the kind of experiment: MTT assay, cytotoxicity in cancer cells. The format is cell-based. The following applies: for cytotoxicity: cancer cells (B16F10), result in words. On the procedure:
as §2, §3, §4

For data set [5], the system named is hippocampal slice. As to the kind of experiment: Electrophysiology in hippocampal slices (fEPSP, LTP). On the set-up: species or system mouse. The following applies: theta-burst stimulation, FIG. 10. The procedure:
• 1. The brain of a 4-month-old mouse was placed on an ice-cold dissection buffer, and a 300 µm-thick sagittal hippocampal slice was prepared by using a vibratome (dissection buffer: contents in mM: […], 25 NaHCO3, 5 KCl, 1.25 NaH2PO4, 0.5 CaCl2, 3.5 MgSO4, 10 D-glucose, 1.25 L-ascorbic acid and 2 Na-pyruvate bubbled with 95% O2/5% CO2). • 2. Slices were recovered at 32°C for 1 hour in normal ACSF (ACSF: mM: 125 NaCl, 2.5 KCl, 1.25 NaH2PO4, 25 NaHCO3, 10 glucose, 2.5 CaCl2 and 1.3 MgCl2 oxygen in 95% O2/5% CO2). • 3. During recording, the slices were moved to a chamber submerged in ACSF at 28°C, and ACSF saturated with 95% O2/5% CO2 was continuously perfused (2ml/min). A Micropipette for stimulation and recording was fabricated by using boron acid glass capillaries (Harvard Instruments) and a micropipette electrode puller. • 4. For input/output, paired-pulse ratio, and long-term potentiation (LTP) experiments, an ACSF-filled pipette (resistance: […]) was used to test the hippocampus. A field excitatory post-synaptic potential (fEPSP) was measured in the CA1 region. The fEPSP signal was amplified by using Multiclamp 700B (Molecular Devices) and digitized by using Digidata 1440A (Molecular Devices). […] The pair-pulse ratio was measured after giving the pair stimulation at intervals of 25, 50, 75, 100, 200, and 300 ms . • 6. […]

Data set [6] is described as follows: in vitro. As to conditions: for Papp at 4 h: PAMPA, pH 7.4, Pe Average. The procedure: Progesterone was used as a positive control and ranitidine was used as a negative control: • (1) A donor buffer at pH 7.4 was dispensed to a deep well plate and mixed with a test substance. • (2) The donor buffer was dispensed into a U.V plate by 150ul per well, and the optical density was measured: blank value. • (3) The mixture was dispensed in the deep well plate into the U.V plate by 150ul per well, and then the optical density was measured: blank value. • (4) 200ul of the mixture in step 1) was dispensed into the donor plate of the Stirwell PAMPA sandwich. • (5) The membrane of the acceptor plate of the Stirwell PAMPA sandwich was coated with 5 ul of BBB-1-lipid. • (6) A brain sink buffer was dispensed into each well on the acceptor plate by 200 ul. • (7) The acceptor plate and donor plate were combined and incubated at 25°C for 4 hours. • (8) After 4 hours of incubation, the acceptor plate and donor plate were separated, and 150 µl each was transferred to a UV plate, and the optical density was measured.

Data set [7] has as its system nerve cells (Neuron). As to the kind of experiment: Neuron proliferation, differentiation and regeneration promoting ability (microscopy). The format is cell-based. The following applies: against control group, FIG. 11. On the procedure: The abilities of pterosin compounds to promote nerve cell proliferation, differentiation and regeneration were evaluated.
Setting [8] is: Normal cell NIH3T3, cultured 48 hours, MTT, OD 550 nm.
Where [9] appears, read: Cancer cell B16F10, cultured 48 hours, MTT, OD 550 nm.
[10] abbreviates: pH 7.4, 25°C, 4 hours, controls 50 µM, Pterosin D 12.5 µM.

Read-outs that look alike come from different tables or passages of the source.

Take `Cc1cc2c(c(C)c1CCO)C(=O)C(C)(C)C2` [Compound 3, pterosin Z]: the values for the CREB phosphorylation entry in data set [1] and in data set [2] were “did not increase CREB phosphorylation at all” and “no effect”, respectively. Further, the cytotoxicity result in data set [3] and in data set [4] was “weak cytotoxicity” in each case.
As for `Cc1cc2c(c(C)c1CCO)C(=O)[C@@H](C)[C@@H]2O` [pterosin C], in data set [1], the CREB phosphorylation entry is reported as “significantly increased” and the “phosphorylation of CREB” value was “statistically significantly increased”. The CREB phosphorylation entry in data set [2] is “no effect”. In data set [5], the “hippocampus mossy fiber-CA1 LTP” value is reported as “particularly strong”.
As for `CC(=O)[C@H]1CC[C@H]2[C@@H]3CCC4=CC(=O)CC[C@]4(C)[C@H]3CC[C@]12C` [Progesterone, reference compound], in data set [6], the Papp at 4 h is 28.8 ×10⁻⁶ cm/s.
Take `Cc1c(CCO)c(CO)cc2c1C(=O)[C@@H](C)C2` [Compound 4, (2S)-pterosin P]: the CREB phosphorylation result in data set [1] is “did not increase CREB phosphorylation at all”; in data set [2], “no effect”. Also, the LD50 in data set [3] (setting [8]) and in data set [4] (setting [9]) was >5,000 µM in each case. Also, the cytotoxicity entry in data set [3] and in data set [4] was “little cytotoxicity” in each case.
For the molecule `Cc1cc2c(c(C)c1CCO)C(=O)[C@](C)(CO)C2` [Compound 6, (2S)-pterosin A], the values for the CREB phosphorylation entry in data set [1] and in data set [2] were “significantly increased” and “no effect”, respectively. The “phosphorylation of CREB” value in data set [1] is recorded as “statistically significantly increased”. For the same molecule, the LD50 in data set [3] (setting [8]) is reported as >5,000 µM. The cytotoxicity result in data set [4] is “weak cytotoxicity only in cancer cells”.
With `Cc1cc2c(c(C)c1CCO)C(=O)[C@@H](C)[C@H]2O` [Compound 8, (2S,3R)-pterosin C], the LD50 in data set [3] (setting [8]) and in data set [4] (setting [9]) was >5,000 µM in each case.
As for `Cc1cc2c(c(C)c1CCO[C@@H]1O[C@H](CO)[C@@H](O)[C@H](O)[C@H]1O)C(=O)[C@](C)(CO)C2` [Compound 11, (2S)-pteroside A], the LD50 in data set [3] and in data set [4] was >5,000 µM in each case.
In the case of `Cc1cc2c(c(C)c1CCO[C@@H]1O[C@H](CO)[C@@H](O)[C@H](O)[C@H]1O)C(=O)C(C)(C)C2` [Compound 10, pteroside Z], the LD50 in data set [3] and in data set [4] was >5,000 µM each time.
Consider `Cc1cc2c(c(C)c1CCO)C(=O)[C@H](C)C2` [Compound 2, (2R)-pterosin B], for which the CREB phosphorylation entry in data set [1] was “did not increase CREB phosphorylation at all”; in data set [2], “no effect”. The cytotoxicity result in data set [3] and in data set [4] was “little cytotoxicity” throughout. Further, the LD50 in data set [4] (setting [9]) was >5,000 µM.
Consider `Cc1cc2c(c(C)c1CCO)C(=O)[C@H](C)[C@H]2O` [Compound 7, (2R,3R)-pterosin C], for which the LD50 in data set [3] (setting [8]) and in data set [4] (setting [9]) was >5,000 µM throughout.
As for `Cc1cc2c(c(C)c1CCO)C(=O)C(C)(C)[C@@H]2O` [Compound 5, (3R)-pterosin D], in data set [1], the CREB phosphorylation entry is recorded as “significantly increased” and the “phosphorylation of CREB” value is recorded as “statistically significantly increased”. Moreover, in data set [2], the CREB phosphorylation entry is “no effect”. For the same molecule, in data set [5], the “hippocampus mossy fiber-CA1 LTP” value is reported as “particularly strong”. For the same molecule, in data set [3] (setting [8]), the LD50 is given as >5,000 µM. For the same molecule, the cytotoxicity entry in data set [3] is recorded as “little cytotoxicity”. For the same molecule, the “length of nerve cells” value in data set [7] is given as “significantly longer”. For the same molecule, in data set [6] (setting [10]), the Papp at 4 h was 20.9 ×10⁻⁶ cm/s, the “Pe 1st” value is on record as 19.74 10^-6cm/sec, the “Pe 2nd” value was 20.20 10^-6cm/sec and the “Pe 3rd” value is listed as 22.73 10^-6cm/sec. Besides, the “BCS code, CNS +/- (spreadability to CNS)” value in data set [6] (pH 7.4, controls 50 µM, Pterosin D 12.5 µM) was “CNS+ (>10)”. Further, the LD50 in data set [4] (setting [9]) was >5,000 µM. The cytotoxicity result in data set [4] is “little cytotoxicity”.
For the molecule `Cc1cc2c(c(C)c1CCO[C@@H]1O[C@H](CO)[C@@H](O)[C@H](O)[C@H]1O)C(=O)[C@H](C)C2` [Compound 9, (2R)-pteroside B], the LD50 in data set [3] and in data set [4] was >5,000 µM in each case.

These data come from EP4260850A1, “PHARMACEUTICAL COMPOSITION COMPRISING PTEROSIN COMPOUND AND DERIVATIVE THEREOF AS ACTIVE INGREDIENT FOR PREVENTION OR TREATMENT OF PKA-RELATED DISEASE” (GHPharm Co., Ltd., priority 2020, dated 2022).
